Measured values as given in patent US7504400B2, “MTP inhibiting aryl piperydines or piperazines substituted with 5-membered heterocycles” (Janssen Pharmaceutica N.V., priority 2004, dated 2009).

Test system: Secretion of ApoB
Experiment: Quantification of the secretion of ApoB in HepG2 cells
Type: cell-based
Conditions: Homo sapiens, HepG2, 24 h, 24 hours of incubation with test compound, immunoprecipitation of apoB from medium, read-out: pIC50 value (=-log IC50 value), secretion of ApoB (converted)
How it was run: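 At 70% confluency, HepG2 cells in MEM with 10% FCS received compound or DMSO carrier (0.4% final) for 24 h. Secreted apoB in cleared medium immunoprecipitated with sheep anti-apoB then rabbit anti-sheep antibody (24 h each, 8° C); pellet radioactivity counted by liquid scintillation; IC50 expressed as pIC50.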

Row | IC50 | SMILES
1 | 31.6 to 316 nM | CCOC(=O)[C@H](c1ccccc1)N1CCN(c2ccc(-n3ccn(C(C)c4cccc(F)c4)c3=O)cc2)CC1 (stereo in doubt) [Compound 337]
2 | 31.6 to 316 nM | CC(C)n1ncn(-c2ccc(N3CCN(C(C(=O)Nc4ccc(Cl)cc4)c4ccccc4)CC3)cc2)c1=O (stereo not drawn) [Compound 55]
3 | 316 to 3160 nM | CCOC(=O)C(c1ccccc1)N1CCC(c2ccc(-n3ccn([C@@H](C)c4ccc5ccccc5c4)c3=O)cc2)CC1 (stereo partly drawn) [Compound 231]
4 | 31.6 to 316 nM | COC(=O)c1ccc(CNC(=O)C(c2ccccc2)N2CCN(c3ccc(-n4ccn(C(C)C)c4=O)c(C)c3)CC2)cc1C (stereo not drawn) [Compound 286]
5 | 31.6 to 316 nM | CCC(C)n1ncn(-c2ccc(N3CCN(C(C(=O)N(C)C)c4ccccc4)CC3)cc2)c1=O (stereo not drawn) [Compound 24]
6 | 316 to 3160 nM | CCOC(=O)C(c1ccccc1)N1CCN(c2ccc(-n3cnn(C(C)c4ccccc4)c3=O)cc2)CC1 (stereo not drawn) [Compound 265]
7 | < 31.6 nM | COC(=O)c1cc(NC(=O)C(c2ccccc2)N2CCC(c3ccc(-n4cnn(C(C)c5ccccc5)c4=O)cc3)CC2)ccc1C (stereo not drawn) [Compound 284]
8 | 31.6 to 316 nM | CCOC(=O)C(c1ccccc1)N1CCN(c2ccc(-n3cnn(C(C)C)c3=O)c(C)c2)CC1 (stereo not drawn) [Compound 217]
9 | 31.6 to 316 nM | CCOC(=O)[C@H](c1ccccc1)N1CCN(c2ccc(-n3ccn(C(C)c4cc(F)cc(F)c4)c3=O)cc2)CC1 (stereo in doubt) [Compound 342]
10 | 316 to 3160 nM | COC(=O)C(c1ccc(C)cc1)N1CCN(c2ccc(-n3cnn(C(C)C)c3=O)cc2)CC1 (stereo not drawn) [Compound 330]
11 | 316 to 3160 nM | CC(C)NC(=O)C(c1ccccc1)C1CCN(c2ccc(-n3cnn(CC4CC4)c3=O)cc2)CC1 (stereo not drawn) [Compound 91]
12 | 31.6 to 316 nM | CCCNC(=O)C(c1ccccc1)C1CCN(c2ccc(-n3cnn(CC(C)C)c3=O)cc2)CC1 (stereo not drawn) [Compound 153]
13 | 31.6 to 316 nM | CCOC(=O)C(c1ccccc1)C1CCN(c2ccc(-n3ccn([C@H](C)c4ccc(Cl)cc4)c3=O)cc2)CC1 (stereo partly drawn) [Compound 255]
14 | 316 to 3160 nM | CCOC(=O)[C@@H](NC(=O)CC1CCN(c2ccc(-n3cnn(C(C)c4ccccc4)c3=O)cc2)CC1)C(C)C (stereo partly drawn) [Compound 392]
15 | 316 to 3160 nM | CC(C)n1ncn(-c2ccc(N3CCN(C(C(=O)NCc4ccccn4)c4ccccc4)CC3)cc2)c1=O (stereo not drawn) [Compound 70]
16 | 316 to 3160 nM | CCNC(=O)C(c1ccccc1)N1CCN(c2ccc(-n3nc(-c4ccccc4)n(-c4ccccc4)c3=O)cc2)CC1 (stereo not drawn) [Compound 26]
17 | 31.6 to 316 nM | CC(C)n1ncn(-c2ccc(N3CCC(C(C(=O)NCc4ccccc4)c4ccccc4)CC3)cc2)c1=O (stereo not drawn) [Compound 168]
18 | 316 to 3160 nM | CCOC(=O)C(c1ccccc1)N1CCC(c2ccc(-n3ccn([C@H](COC)c4ccccc4)c3=O)cc2)CC1 (stereo partly drawn) [Compound 239]
19 | 31.6 to 316 nM | CCOC(=O)C(c1ccccc1)N1CCC(c2ccc(-n3ccn([C@H](C)c4ccccc4)c3=O)cc2)CC1 (stereo partly drawn) [Compound 227]
20 | < 31.6 nM | Cc1cc(N2CCN(C(C(=O)Nc3ccc4c(c3)CCC4)c3ccccc3)CC2)ccc1-n1cnn(C(C)C)c1=O (stereo not drawn) [Compound 218]
21 | 316 to 3160 nM | Cc1nn(-c2ccc(N3CCN(C(C(=O)NCc4ccccc4)c4ccccc4)CC3)cc2)c(=O)n1C(C)C (stereo not drawn) [Compound 40]
22 | 31.6 to 316 nM | CCOC(=O)C(c1ccccc1)N1CCC(c2ccc(-n3ccn(C(CC)c4ccccc4)c3=O)cc2)CC1 (stereo not drawn) [Compound 242]
23 | 31.6 to 316 nM | C=CCn1ncn(-c2ccc(N3CCC(C(C(=O)NCc4ccccc4)c4ccccc4)CC3)cc2)c1=O (stereo not drawn) [Compound 180]
24 | 31.6 to 316 nM | CCOC(=O)C(c1ccccc1)N1CCC(c2ccc(-n3ccn([C@H](C)c4cccc(OC)c4)c3=O)cc2)CC1 (stereo partly drawn) [Compound 237]
25 | < 31.6 nM | CC(C)n1ncn(-c2ccc(N3CCN(C(C(=O)Nc4ccc5c(c4)CCC5)c4ccccc4)CC3)c(Cl)c2)c1=O (stereo not drawn) [Compound 215]
26 | 316 to 3160 nM | CC(C)n1cnn(-c2ccc(N3CCN(C(C(=O)Nc4ccccc4)c4ccccc4)CC3)cc2)c1=O (stereo not drawn) [Compound 5]
27 | 31.6 to 316 nM | CCOC(=O)C(c1ccccc1)N1CCC(c2ccc(-n3ccn([C@H](C)c4cccc5ccccc45)c3=O)cc2)CC1 (stereo partly drawn) [Compound 225]
